Reference: ChEMBL document CHEMBL1201862, “PubChem BioAssay data set” (2004)
Calls of active or inactive are those of the source.

Tests used:
[1] = target: T1, Ubiquitin-conjugating enzyme E2 N (Homo sapiens, UniProt P61088); assay type: functional;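 further: Dose-response confirmation in a TR-FRET assay detecting UBC13-driven polyubiquitin chain formation, inhibition measured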
T1 sequence (P61088 whole entry): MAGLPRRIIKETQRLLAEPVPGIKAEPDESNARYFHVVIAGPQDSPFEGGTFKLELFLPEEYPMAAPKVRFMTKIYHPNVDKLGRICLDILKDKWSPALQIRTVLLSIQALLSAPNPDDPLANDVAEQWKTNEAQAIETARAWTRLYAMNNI

[2] = tested on: H4; experiment: Luminescence Cell-Based Dose Response HTS to Identify Activators of 5'UTR Stem-Loop Driven Prion Protein mRNA Translation in H4 Neuroglioblastoma Cells. [Related pubchem assays: 1829 (Project Summary), 1814 (Primary HTS)]; assay type: functional; details: Homo sapiens
[3] = Luminescence Cell-Based Dose Response HTS to Identify Activators of Luciferase Translation or Activity in H4 […] Cells. [Related pubchem assays: 1829 (Project Summary), 1814 (Primary HTS)]; assay type: functional
[4] = viability of uninfected HEp-2 cells – cell-based, HTS, cytotoxicity control for RSV inhibitor project, dose response (AID 2410); assay type: functional; details: human respiratory syncytial virus
[5] = tested on: INS1; experiment: INS-1E survival protection against cytokine death – cell-based, luminescence, retest, dose response (AID 449756); assay type: functional; details: Rattus norvegicus;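 further: cell death triggered by IL-1 beta plus TNF-alpha plus IFN-gamma mixture; protective hits raise ATP signal compared with cytokine alone wells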
[6] = Luminescence Cell-Based Dose Retest to Confirm Inhibitors of Cancer Stem Cells. [Related pubchem assays (depositor defined):AID2717, AID2721]; assay type: functional; details: Homo sapiens
[7] = HIV-1 AD8 envelope cell-cell fusion blockers – cherry-pick, dose response (AID 652062); assay type: functional, cell-based;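 further: luciferase signal from cell-cell fusion driven by HIV-1 clade B AD8 Env; potency is for inhibitors of fusion seen as a drop in luminescence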
[8] = blockers of HIV-1 ZM109 envelope-driven cell-cell fusion – HeLa effector, CEM target cells, luciferase, cherry-pick, dose response (AID 652058); assay type: functional, cell-based;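 further: luciferase signal from HIV-1 Env mediated cell-cell fusion of effector and target cells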
[9] = target: Cytochrome P450 2C19 (Homo sapiens, UniProt P33261); experiment: Cytochrome panel assay with activity outcomes. Panel member name: p450-cyp2c19 Compounds with AC50 equal or less than 10 uM are considered active; assay type: functional; details: read-out: AC50
[10] = target: Cytochrome P450 3A4 (Homo sapiens, UniProt P08684);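 further: CYP3A4 tested as one member of a cytochrome P450 panel screen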
[11] = reduction of Shn3 3'UTR-driven luciferase in osteoblasts – cell-based, Clone20 osteoblasts, firefly luciferase, cherry-picked, dose response (AID 624132); assay type: functional;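 further: firefly luciferase luminescence from reporter carrying the Shn3 3'UTR in osteoblasts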
[12] = non-specific 3'UTR reporter inhibition in Clone20-Shn3RL – cell-based, Renilla luciferase, cherry-picked, counter-screen for Shn3 inhibitor project, dose response (AID 624133); assay type: functional
[13] = blockers of HIV-1 envelope-mediated cell-cell fusion – cherry-pick, dose response (AID 652057); assay type: functional, cell-based
[14] = P. falciparum Dd2 growth inhibitors, dose response, SYBR Green, cherry-picked samples (AID 1159567); assay type: functional, cell-based

Sequence of Cytochrome P450 3A4 (P08684 whole entry): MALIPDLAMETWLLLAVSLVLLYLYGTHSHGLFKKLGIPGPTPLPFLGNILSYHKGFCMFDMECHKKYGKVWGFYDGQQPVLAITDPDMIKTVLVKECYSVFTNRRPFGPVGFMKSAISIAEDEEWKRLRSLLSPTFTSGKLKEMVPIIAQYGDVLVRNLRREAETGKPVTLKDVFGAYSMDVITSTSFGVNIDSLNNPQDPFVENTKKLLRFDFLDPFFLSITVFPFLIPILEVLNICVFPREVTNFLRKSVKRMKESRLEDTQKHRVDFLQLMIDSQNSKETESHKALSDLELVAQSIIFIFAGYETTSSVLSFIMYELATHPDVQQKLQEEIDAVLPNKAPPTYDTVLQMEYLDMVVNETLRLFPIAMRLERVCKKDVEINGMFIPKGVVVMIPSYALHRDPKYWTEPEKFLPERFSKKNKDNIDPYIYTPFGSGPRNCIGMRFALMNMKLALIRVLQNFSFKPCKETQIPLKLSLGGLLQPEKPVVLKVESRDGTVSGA
Sequence of Cytochrome P450 2C19 (P33261 whole entry): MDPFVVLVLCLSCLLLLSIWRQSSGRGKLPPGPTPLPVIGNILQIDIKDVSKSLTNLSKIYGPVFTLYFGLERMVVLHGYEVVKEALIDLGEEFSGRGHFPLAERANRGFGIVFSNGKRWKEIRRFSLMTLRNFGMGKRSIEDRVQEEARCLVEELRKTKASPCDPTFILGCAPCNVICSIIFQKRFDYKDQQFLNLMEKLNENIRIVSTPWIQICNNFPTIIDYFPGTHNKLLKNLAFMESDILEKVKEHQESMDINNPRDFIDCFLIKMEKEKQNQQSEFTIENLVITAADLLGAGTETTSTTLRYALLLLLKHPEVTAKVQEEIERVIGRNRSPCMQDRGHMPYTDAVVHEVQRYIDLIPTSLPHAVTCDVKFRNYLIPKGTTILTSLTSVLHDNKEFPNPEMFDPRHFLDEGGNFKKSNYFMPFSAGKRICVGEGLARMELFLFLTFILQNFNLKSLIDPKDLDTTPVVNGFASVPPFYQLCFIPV

In the case of `NC1=NC[C@@H](Cc2ccc(O)cc2)N1CCc1cc(C(F)(F)F)cc(C(F)(F)F)c1`, the IC50 [1] is reported as > 20 µM (inactive).
In the case of `Nc1cc(-c2nc3ncccc3o2)ccc1Cl`, the EC50 [2] is reported as > 120 µM (not active) and the EC50 [3] is reported as 4.25 µM (active).
For `Nc1c2c(nc3ccc(Br)cc13)N(Cc1ccccc1)CC2`, the CC50 [4] was 9.17 µM (active).
In the case of `COc1ccc(-c2cc(-c3cccs3)nc(OC)c2C#N)cc1OC`, the IC50 [1] is reported as > 20 µM (inactive).
For `O=C(CCc1nc(O)c2ccccc2n1)NCCN1C(=O)S/C(=C\c2ccccc2Cl)C1=O`, the CC50 [4] was 23.9 µM (active).
For `COc1ccc(C(CCN2CCCC2)c2c(OC)cc(OC)c3c(-c4ccccc4)cc(=O)oc23)cc1` (stereo not drawn), the IC50 [1] was > 20 µM (inactive).
For `CC(=O)c1ccc(NC(S)=NCc2cccnc2)cc1`, the AC50 [5] was 5.94 µM (active).
In the case of `Cc1ccc(C2CC(c3cccc(Br)c3)n3nc(N)nc3N2)cc1` (stereo not drawn), the AC50 [5] is reported as 34.1 µM (active).
For `CC(=O)C1=C(C)NC(SCC(=O)c2ccc(Cl)cc2)=C(C#N)C1CC(C)C` (stereo not drawn), the CC50 [4] was 23.4 µM (active).
With `COc1ccccc1-c1oc2ccccc2c1C#CC1(N)CCCCC1` the IC50 [1] was > 20 µM (inactive) and the AC50 [6] was 5.52 µM (active).
With `CCCCOC(=O)c1ccc(NC(=O)CN2C(=O)NC3(CCCCCC3)C2=O)cc1` the CC50 [4] was 31.9 µM (active).
In the case of `CCc1ccc(NC2=NC(=O)/C(=C/c3cc(OC)c(OC)c(OC)c3)S2)cc1`, the CC50 [4] is reported as 21.2 µM (active).
With `Cc1cccc(C)c1NC(=O)N1CCN(c2nc3ccccc3s2)CC1` the AC50 [7] was 10 µM (active) and the AC50 [8] was 1.05 µM (active).
In the case of `Cc1ccc(S(=O)(=O)N=C(N)Nc2nc(C)c3ccc(C)cc3n2)cc1`, the CC50 [4] is reported as > 50 µM (active).
In the case of `O=C(C1CC(c2ccc(F)cc2)=NO1)N1CCCCC1` (stereo not drawn), the EC50 [2] is reported as 33.4 µM (active) and the EC50 [3] is reported as 5.56 µM (active).
With `O=C(Nc1ccc(Br)cc1)c1ccc(CSC2=NCCS2)cc1` the EC50 [2] was 99.7 µM (active), the EC50 [3] was 3.81 µM (active) and the AC50 [9] was 11.2 µM (inconclusive). The AC50 [10] was 3.55 µM (inconclusive).
With `c1ccc2c(C[C@@H]3CNCCN3CCC34CC5CC(CC(C5)C3)C4)cccc2c1` the IC50 [1] was > 20 µM (inactive).
In the case of `Cc1sc2ncnc(N3CCN(S(=O)(=O)c4ccccc4)CC3)c2c1C`, the AC50 [5] is reported as 4.3 µM (active), the AC50 [11] is reported as 2.3 µM (active) and the AC50 [12] is reported as 3.43 µM (active).
For `CO[C@H]1CN(C)C(=O)c2ccc(NC(=O)C3CCC3)cc2OC[C@H](C)N(CC2CCCCC2)C[C@@H]1C`, the AC50 [7] was 1.83 µM (active), the AC50 [8] was 1.25 µM (active) and the AC50 [13] was 0.592 µM (active).
For `C[C@H](CO)N1C[C@H](C)[C@H](CN(C)S(=O)(=O)c2cccs2)Oc2ccc(NC(=O)Nc3ccccc3)cc2CC1=O`, the AC50 [7] was 1.34 µM (active), the AC50 [8] was 0.579 µM (active) and the AC50 [13] was 0.395 µM (active).
In the case of `O=C(c1ccccc1F)N1C[C@H]2[C@@H](c3ccccc31)[C@@H](CO)N2C(=O)c1ccc(F)cc1`, the AC50 [14] is reported as 35.2 µM (active).
In the case of `CO[C@@H]1CN(C)C(=O)c2ccc(NC(=O)c3ccc(F)cc3)cc2OC[C@@H](C)N(C(=O)c2ccc(F)cc2)C[C@@H]1C`, the AC50 [14] is reported as 4.29 µM (active).
With `CCCN(C)C[C@H]1Oc2ncc(C#Cc3ccccc3OC)cc2C(=O)N([C@H](C)CO)C[C@H]1C` the AC50 [14] was 3.28 µM (active).
For `CCCNC(=O)N1[C@H](CO)[C@H](c2ccc(-c3ccc(C#N)cc3)cc2)[C@@H]1CNC`, the AC50 [14] was 11.5 µM (active).
In the case of `C/C=C/c1ccc2c(c1)[C@H]1[C@H](CCN1S(=O)(=O)c1cccc(F)c1)[C@@H](CO)N2`, the AC50 [14] is reported as 4.13 µM (active).
